Measurements published in patent US9265709B2, “Use of peptides as antidandruff agents” (L'OREAL, priority 2009, dated 2016).
Ends that are not written are not given here.

Test system: M. furfur
Test: Antimicrobial activity (MIC) micromethod in microplates on microorganisms responsible for dandruff
Assay type: cell-based
Details: Sabouraud medium with 10% olive oil, 24 to 48 hours at 32.5° C., OD 620 nm vs control without peptide, peptide tested at 0.1%, 0.25%, 0.5% and 1%
Protocol: The antimicrobial activity of the peptides used according to the invention may be evaluated by measuring their minimum inhibitory concentration (MIC). Decreasing concentrations of peptides are contacted with standardised inoculum of microorganisms in a culture medium suitable for growth of said microorganisms in exponential growth phase. After incubation at the suitable temperature for the microorganism, the growth is evaluated by an OD (620 nm) measurement. […] The MIC obtained may be compared with the same measurement performed only with solvent (without the peptide) or with a compound of known antibiotic activity. This test may also be used to test the selectivity of the peptides used. This method can be used to determine the effect of the test peptide on a beneficial microorganism of the microbial flora of the scalp such as Staphylococcus epidermidis. Peptides that give on the strains responsible for desquamative disorders of the hair and/or the scalp (e.g., M. furfur) better inhibition than on the beneficial strains (e.g., S. epidermidis) will be selected.
The test has been carried using a micromethod in microplates. […]
After incubation of the microplate from 24 to 48 hours at 32.5° C., optical density at 620 nm has been measured. […]

Row | Substance | MIC [%]
1 | FLSLIPHAINAVSAIAKHF-NH2 (listed as Phyllomedusa azurea) [PS-7] | <0.1
2 | GLWSTIKNVGKEAAIAAGKAALGAL-NH2 (listed as Phyllomedusa hypochondrialis) [DPh-1] | <0.1
